The target of one assay is T1, GR (Homo sapiens, UniProt P04150).
T1 sequence (P04150 1-777): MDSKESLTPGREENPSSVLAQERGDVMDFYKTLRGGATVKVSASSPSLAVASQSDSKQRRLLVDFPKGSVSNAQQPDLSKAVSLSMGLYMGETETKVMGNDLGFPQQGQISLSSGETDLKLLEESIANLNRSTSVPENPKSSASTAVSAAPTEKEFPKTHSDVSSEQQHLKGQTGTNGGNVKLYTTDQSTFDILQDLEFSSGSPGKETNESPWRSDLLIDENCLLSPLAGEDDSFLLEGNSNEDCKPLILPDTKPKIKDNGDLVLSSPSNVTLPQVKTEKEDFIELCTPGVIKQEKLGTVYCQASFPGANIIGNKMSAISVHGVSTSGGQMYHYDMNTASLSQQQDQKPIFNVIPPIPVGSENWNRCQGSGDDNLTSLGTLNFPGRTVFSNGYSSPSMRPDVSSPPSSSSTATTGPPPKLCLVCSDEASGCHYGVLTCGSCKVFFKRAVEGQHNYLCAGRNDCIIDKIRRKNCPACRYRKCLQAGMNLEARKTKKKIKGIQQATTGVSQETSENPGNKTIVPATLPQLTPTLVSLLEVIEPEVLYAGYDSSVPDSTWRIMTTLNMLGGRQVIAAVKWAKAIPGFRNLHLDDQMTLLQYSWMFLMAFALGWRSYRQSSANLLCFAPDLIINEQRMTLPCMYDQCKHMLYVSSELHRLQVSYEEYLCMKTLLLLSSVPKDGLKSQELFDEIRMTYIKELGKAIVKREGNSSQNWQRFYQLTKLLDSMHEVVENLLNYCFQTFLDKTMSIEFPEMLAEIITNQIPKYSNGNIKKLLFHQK
The assay can be described thus: 3H-dexamethasone displacement assay on DU145 cells. The assay is classed as binding.

A further assay has as its target T2, ER (Homo sapiens, UniProt P03372).
T2 sequence (P03372 1-595): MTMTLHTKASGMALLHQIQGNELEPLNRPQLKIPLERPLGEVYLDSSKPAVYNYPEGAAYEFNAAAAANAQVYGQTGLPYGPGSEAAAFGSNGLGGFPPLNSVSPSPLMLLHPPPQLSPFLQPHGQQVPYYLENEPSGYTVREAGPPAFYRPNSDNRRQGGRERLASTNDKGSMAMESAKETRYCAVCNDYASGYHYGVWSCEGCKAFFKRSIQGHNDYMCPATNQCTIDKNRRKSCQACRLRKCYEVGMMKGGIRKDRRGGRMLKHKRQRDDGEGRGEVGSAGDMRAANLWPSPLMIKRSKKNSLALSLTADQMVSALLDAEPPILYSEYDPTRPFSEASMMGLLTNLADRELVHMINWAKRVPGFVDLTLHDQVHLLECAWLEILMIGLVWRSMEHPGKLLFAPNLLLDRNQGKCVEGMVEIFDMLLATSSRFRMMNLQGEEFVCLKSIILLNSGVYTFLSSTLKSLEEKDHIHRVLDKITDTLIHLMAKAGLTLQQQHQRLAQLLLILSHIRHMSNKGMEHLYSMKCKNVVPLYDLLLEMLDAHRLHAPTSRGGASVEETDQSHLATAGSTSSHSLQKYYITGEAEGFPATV
The assay can be described thus: 3H-estradiol displacement assay on MCF7 cells. The assay is classed as binding.

Another assay addresses T3, AR (Homo sapiens, UniProt P10275).
T3 sequence (P10275 1-920): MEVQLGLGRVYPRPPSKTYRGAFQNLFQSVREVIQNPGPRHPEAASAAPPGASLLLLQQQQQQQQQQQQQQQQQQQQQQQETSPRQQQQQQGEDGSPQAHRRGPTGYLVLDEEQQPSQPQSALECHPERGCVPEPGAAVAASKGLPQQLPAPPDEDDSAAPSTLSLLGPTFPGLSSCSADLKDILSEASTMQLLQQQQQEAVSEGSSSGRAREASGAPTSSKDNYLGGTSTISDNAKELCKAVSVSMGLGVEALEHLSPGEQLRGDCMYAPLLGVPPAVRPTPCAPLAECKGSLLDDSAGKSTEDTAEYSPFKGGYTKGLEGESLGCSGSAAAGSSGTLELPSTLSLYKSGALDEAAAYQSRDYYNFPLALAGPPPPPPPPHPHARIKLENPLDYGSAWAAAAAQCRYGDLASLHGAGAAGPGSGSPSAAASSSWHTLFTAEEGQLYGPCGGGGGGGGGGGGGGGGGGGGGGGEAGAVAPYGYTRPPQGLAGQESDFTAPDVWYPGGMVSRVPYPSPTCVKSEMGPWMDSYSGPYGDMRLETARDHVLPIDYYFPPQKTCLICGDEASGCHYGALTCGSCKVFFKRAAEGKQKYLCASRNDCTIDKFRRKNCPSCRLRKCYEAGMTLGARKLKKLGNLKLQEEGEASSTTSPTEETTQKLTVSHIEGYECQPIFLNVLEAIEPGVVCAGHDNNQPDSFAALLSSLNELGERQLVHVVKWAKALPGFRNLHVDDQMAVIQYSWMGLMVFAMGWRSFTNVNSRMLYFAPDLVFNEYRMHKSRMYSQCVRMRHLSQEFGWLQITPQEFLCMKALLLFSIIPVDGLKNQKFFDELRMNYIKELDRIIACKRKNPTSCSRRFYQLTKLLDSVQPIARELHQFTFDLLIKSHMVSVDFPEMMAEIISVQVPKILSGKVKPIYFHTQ
The assay can be described thus: 3H-dihydrotestosterone displacement assay on LNCaP-AR cells. The class given is binding.

The target in the next assay is T4, PR (Homo sapiens, UniProt P06401).
T4 sequence (P06401 1-933): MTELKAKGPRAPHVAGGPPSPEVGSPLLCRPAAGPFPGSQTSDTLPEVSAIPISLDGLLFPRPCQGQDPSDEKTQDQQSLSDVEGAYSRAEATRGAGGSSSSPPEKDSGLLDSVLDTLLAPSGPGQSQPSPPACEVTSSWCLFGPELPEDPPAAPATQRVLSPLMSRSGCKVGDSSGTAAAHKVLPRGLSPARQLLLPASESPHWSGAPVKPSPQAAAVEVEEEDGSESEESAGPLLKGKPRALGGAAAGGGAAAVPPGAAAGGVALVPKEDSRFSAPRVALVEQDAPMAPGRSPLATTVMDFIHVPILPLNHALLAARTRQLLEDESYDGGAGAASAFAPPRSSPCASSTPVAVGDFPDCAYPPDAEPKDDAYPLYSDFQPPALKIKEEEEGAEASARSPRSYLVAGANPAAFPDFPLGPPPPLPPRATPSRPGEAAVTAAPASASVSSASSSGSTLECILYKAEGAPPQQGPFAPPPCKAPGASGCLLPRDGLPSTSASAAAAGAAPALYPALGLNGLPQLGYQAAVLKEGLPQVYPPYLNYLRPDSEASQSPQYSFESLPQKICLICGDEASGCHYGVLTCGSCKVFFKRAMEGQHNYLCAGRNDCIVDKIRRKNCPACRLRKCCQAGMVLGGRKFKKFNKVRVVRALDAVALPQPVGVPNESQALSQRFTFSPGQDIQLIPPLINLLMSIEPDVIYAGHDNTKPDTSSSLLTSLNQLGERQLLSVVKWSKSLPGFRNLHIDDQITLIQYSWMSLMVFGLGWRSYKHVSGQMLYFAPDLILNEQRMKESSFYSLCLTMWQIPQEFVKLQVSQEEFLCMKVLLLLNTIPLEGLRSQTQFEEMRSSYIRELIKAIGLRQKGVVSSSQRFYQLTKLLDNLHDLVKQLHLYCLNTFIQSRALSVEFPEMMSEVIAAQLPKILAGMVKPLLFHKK
The assay can be described thus: 3H-progesterone displacement assay on MCF7 cells. The class given is binding.

Assay [1] deals with GR target genes (GILZ, FKBP5, Per1) in DU145 cells. Briefly: Real time PCR of GR target genes in DU145 cells. The assay is classed as cell-based, human. (In general: Real-time PCR tracks product formation cycle by cycle.)

The term Ki denotes the dissociation constant of the complex between target and ligand, obtained from inhibition or displacement. Read a low Ki as a stronger hold on the target. For `COc1cccc2c1-c1ccc3c(c1C(Cc1ccc(F)cc1)O2)C(C)=CC(C)(C)N3` (centres unmarked) [YJH08, 5-(4-fluorobenzyl)-10-methoxy-2,2,4-trimethyl-2,5-dihydro-1H-chromeno[3,4-f]quinoline], the Ki was 0.401 nM on GR (Ki GR, 3H-dexamethasone displacement, DU145 cells, one site Ki fit); around 0.4 nM at GR (Ki for GR); 19000 nM on ER; 220 nM at AR; 555 nM at PR. In addition, in assay [1] (DU145 cells, 10 μM, 6 h exposure, real time PCR), the “levels of GR target genes GILZ, FKBP5” value is reported as “elevated”. In assay [1] (DU145 cells, YJH08 10 μM, 6 h exposure), the “induction of Per1” value is recorded as “induced by dexamethasone but not YJH08”. In assay [1] (from target gene induction in DU145 cells), the “GR functional activity (overall assessment)” value is on record as “mild GR agonist”.

(Values after publication PMC8031368 (ACS chemical biology, 2020).)
